# Biological target: T1, human D4.2 receptor (Homo sapiens, UniProt P21917, DEL265-296)
# T1 sequence (P21917 with tags, fused parts or gaps DEL265-296): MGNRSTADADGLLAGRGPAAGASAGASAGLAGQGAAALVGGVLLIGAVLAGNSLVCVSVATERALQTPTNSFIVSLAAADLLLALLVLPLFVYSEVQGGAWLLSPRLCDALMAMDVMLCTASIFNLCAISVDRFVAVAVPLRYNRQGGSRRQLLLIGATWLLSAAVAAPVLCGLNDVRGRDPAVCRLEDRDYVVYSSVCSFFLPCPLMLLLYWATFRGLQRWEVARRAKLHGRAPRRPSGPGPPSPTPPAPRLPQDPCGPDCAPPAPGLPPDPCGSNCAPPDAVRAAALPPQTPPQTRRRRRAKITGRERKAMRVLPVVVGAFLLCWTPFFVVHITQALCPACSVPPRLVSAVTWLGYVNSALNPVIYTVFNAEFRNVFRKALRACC
# Experiment: Dopamine D4 receptor binding experiment ([3H]-spiperone)
# Conditions: CHO cell membranes expressing human D4.2 receptor, [3H]-spiperone (0.5 nM), 27°C, 2 hours
# Protocol: As a receptor preparation, Chinese hamster ovary (CHO) cell membranes where human D4.2 receptor was expressed were used.
# As [^3H]-labeled ligand, [^3H]-spiperone was used.
# Human D4.2 receptor binding test: CHO cell membranes where human D4.2 receptor was expressed, [^3H]-spiperone (0.5 nM) and a test drug were reacted at 27°C for 2 hours in 50 mM Tris-HCl buffer, pH 7.4 containing 5 mM EDTA, 1.5 mM calcium chloride, 5 mM potassium chloride and 120 mM sodium chloride.
# After the reaction, the sample was filtered under suction through a glass filter (GF/B), and the radioactivity of the filter paper was determined in a liquid scintillation spectrometer.
# The binding of [^3H]-spiperone in the presence of 10 µM haloperidol was assumed to be non-specific binding, and the difference between the total binding and the non-specific binding was assumed to be specific binding.
row,Compound,IC50
1,Nc1nc(-c2ccc(F)cc2)c(C2CCN(CCCC(=O)c3ccccc3)C2)s1 (racemic) [Compound D-06],38.5 nM
2,"Nc1nc(-c2ccc(F)cc2)c(CCN2CCC(C(=O)c3ccc(F)cc3)CC2)s1 [Compound K-01, 2-amino-4-(4-fluorophenyl)-5-[2-[4-(4-fluorobenzoyl)piperidin-1-yl]ethyl]thiazole]",7.92 nM
3,Nc1nc(-c2ccc(F)cc2)c(C2CCN(CCCC(c3ccc(F)cc3)c3ccc(F)cc3)C2)s1 (racemic) [Compound B-19],55.9 nM
4,COc1ccc(C(=O)C2CCN(CCc3sc(C)nc3-c3ccc(F)cc3)CC2)cc1 [Compound K-22],38.5 nM
5,Cc1nc(-c2ccc(F)cc2)c(CCN2CCC(C(=O)c3ccc(Cl)cc3)CC2)s1 [Compound K-20],5.46 nM
6,Nc1nc(-c2ccc(F)cc2)c(C2CCN(CCCCc3noc4cc(F)ccc34)C2)s1 (centres unmarked) [Compound E-06],97.7 nM
7,Nc1nc(-c2ccc(F)cc2)c(C2CCN(CCCN3C(=O)Cc4cc(F)ccc43)C2)s1 (centres unmarked) [Compound H-08],46.4 nM
8,Nc1nc(-c2ccc(F)cc2)c(C2CCN(CCCn3c(=O)ccc4cc(F)ccc43)C2)s1 (centres unmarked) [Compound H-03],61.4 nM
9,Nc1nc(-c2ccc(F)cc2)c(C2CCN(CCCN3C(=O)Cc4ccccc43)C2)s1 (centres unmarked) [Compound H-07],89 nM
10,Nc1nc(-c2ccc(F)cc2)c(CCN2CCC(Cc3ccccc3)CC2)s1 [Compound K-04],46.4 nM
11,Nc1nc(-c2ccc(F)cc2)c(CCN2CCC(C(=O)c3ccc(Cl)cc3)CC2)s1 [Compound K-08],29.2 nM
12,Cc1nc(-c2ccc(Cl)cc2)c(CCN2CCC(C(=O)c3ccc(F)cc3)CC2)s1 [Compound K-26],4.53 nM
13,COc1ccc(-c2nc(C)sc2CCN2CCC(C(=O)c3ccc(F)cc3)CC2)cc1 [Compound K-28],1.63 nM
14,"Nc1nc(-c2ccc(F)cc2)c(C2CCN(CCCC(=O)c3ccc(F)cc3)C2)s1 (single isomer, unassigned; (+)) [Compound F-05, (+)-2-amino-4-(4-fluorophenyl)-5-[1-[4-(4-fluorophenyl)-4-oxobutyl]pyrrolidin-3-yl]thiazole]",6.58 nM
15,Nc1nc(-c2ccccc2)c(CCN2CCC(C(=O)c3ccc(F)cc3)CC2)s1 [Compound K-10],8.7 nM
16,Nc1nc(-c2ccc(F)cc2)c(C2CCN(CCC=C(c3ccc(F)cc3)c3ccc(F)cc3)C2)s1 (racemic) [Compound C-03],29.2 nM

# Same assay, conditions: inhibition of [3H]-spiperone binding, human D4.2 receptor
row,Compound,IC50
1,Nc1nc(-c2ccc(F)cc2)c(CCN2CCC(=Cc3cccc(F)c3)CC2)s1 [Compound L-11],2.85 nM
2,Cc1nc(-c2ccc(F)cc2)c(CCN2CCC(=Cc3ccc(Br)cc3)CC2)s1 [Compound L-25],29.2 nM
3,C=C(c1ccc(F)cc1)C1CCN(CCc2sc(C)nc2-c2ccc(F)cc2)CC1 [Compound K-32],12.6 nM
4,Nc1nc(-c2ccc(F)cc2)c(CCN2CCC(=Cc3ccccc3F)CC2)s1 [Compound L-12],2.36 nM
5,CNc1nc(-c2ccc(F)cc2)c(CCN2CCC(C(=O)c3ccc(F)cc3)CC2)s1 [Compound K-36],3.43 nM
6,O=C(c1ccc(F)cc1)C1CCN(CCc2scnc2-c2ccc(F)cc2)CC1 [Compound K-33],2.36 nM
7,Nc1nc(-c2ccc(F)cc2)c(CCN2CCC(=Cc3ccc(Cl)cc3)CC2)s1 [Compound L-08],73.9 nM
8,Cc1nc(-c2ccc(Br)cc2)c(CCN2CCC(=Cc3ccc(F)cc3)CC2)s1 [Compound L-19],16.7 nM
9,Cc1nc(-c2ccc(F)cc2)c(CCN2CCC(=Cc3ccccc3F)CC2)s1 [Compound L-28],5.99 nM
10,Cc1nc(-c2ccc(F)cc2)c(CCN2CCC(=Cc3ccccc3)CC2)s1 [Compound L-30],2.6 nM
11,CC(=C1CCN(CCc2sc(N)nc2-c2ccc(F)cc2)CC1)c1ccc(F)cc1 [Compound L-15],7.92 nM
12,CNc1nc(-c2ccc(F)cc2)c(CCN2CCC(=Cc3ccc(F)cc3)CC2)s1 [Compound L-35],2.15 nM
13,Cc1nc(-c2ccc(F)cc2)c(CCN2CCC(=Cc3cccc(F)c3)CC2)s1 [Compound L-27],1.96 nM
